SMILES strings stand for the structures.

IC50 data for one compound are collected here from patent publication US20080234304A1, “N3-Pyridyl-Thiamine And Its Use In Cancer Treatments” (AVEO PHARMACEUTICALS, INC., priority 2004, published 2008).

Assay [1] concerns the target T1, alpha-ketoglutarate dehydrogenase (kGDH) (Homo sapiens, UniProt Q02218).
T1 construct: endogenous in cells
T1 sequence (Q02218 41-1023): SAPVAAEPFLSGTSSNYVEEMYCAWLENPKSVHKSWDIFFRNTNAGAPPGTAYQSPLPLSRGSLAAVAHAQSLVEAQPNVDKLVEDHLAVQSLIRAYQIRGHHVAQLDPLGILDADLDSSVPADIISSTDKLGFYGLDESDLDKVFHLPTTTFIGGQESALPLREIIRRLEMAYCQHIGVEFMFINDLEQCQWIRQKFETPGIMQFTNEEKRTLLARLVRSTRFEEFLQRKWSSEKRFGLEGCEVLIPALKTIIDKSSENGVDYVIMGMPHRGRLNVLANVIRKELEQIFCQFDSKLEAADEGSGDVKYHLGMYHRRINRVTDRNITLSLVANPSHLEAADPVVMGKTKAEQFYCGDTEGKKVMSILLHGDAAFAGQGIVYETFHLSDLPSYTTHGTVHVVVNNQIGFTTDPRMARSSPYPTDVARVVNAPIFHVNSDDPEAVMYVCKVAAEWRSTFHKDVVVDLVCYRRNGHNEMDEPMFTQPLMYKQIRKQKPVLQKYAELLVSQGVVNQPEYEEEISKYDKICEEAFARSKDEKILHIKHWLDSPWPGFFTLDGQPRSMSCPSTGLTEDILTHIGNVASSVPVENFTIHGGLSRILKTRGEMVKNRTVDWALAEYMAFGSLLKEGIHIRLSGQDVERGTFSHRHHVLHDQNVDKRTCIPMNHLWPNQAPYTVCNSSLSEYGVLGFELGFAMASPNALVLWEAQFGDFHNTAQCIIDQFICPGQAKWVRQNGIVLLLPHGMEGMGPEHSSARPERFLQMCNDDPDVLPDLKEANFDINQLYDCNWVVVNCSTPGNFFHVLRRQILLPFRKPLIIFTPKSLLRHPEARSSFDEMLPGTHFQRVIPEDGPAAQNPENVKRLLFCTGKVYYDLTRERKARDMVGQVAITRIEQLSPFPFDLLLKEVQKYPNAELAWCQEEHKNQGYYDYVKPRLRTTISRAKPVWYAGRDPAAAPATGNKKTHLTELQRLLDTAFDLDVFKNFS
T1 sequence (P36957 68-453 partner): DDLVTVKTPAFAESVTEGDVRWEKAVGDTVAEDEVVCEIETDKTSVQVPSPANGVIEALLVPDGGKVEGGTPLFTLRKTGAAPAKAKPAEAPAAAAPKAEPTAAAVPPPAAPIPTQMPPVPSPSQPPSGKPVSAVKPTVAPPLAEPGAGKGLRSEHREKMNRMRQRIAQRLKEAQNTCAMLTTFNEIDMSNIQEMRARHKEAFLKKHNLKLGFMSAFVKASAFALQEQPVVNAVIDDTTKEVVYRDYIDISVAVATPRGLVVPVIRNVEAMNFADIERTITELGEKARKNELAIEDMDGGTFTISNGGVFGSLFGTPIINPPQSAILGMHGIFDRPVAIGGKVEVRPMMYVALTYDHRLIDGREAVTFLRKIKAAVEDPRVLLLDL
T1 sequence (P09622 36-509 partner): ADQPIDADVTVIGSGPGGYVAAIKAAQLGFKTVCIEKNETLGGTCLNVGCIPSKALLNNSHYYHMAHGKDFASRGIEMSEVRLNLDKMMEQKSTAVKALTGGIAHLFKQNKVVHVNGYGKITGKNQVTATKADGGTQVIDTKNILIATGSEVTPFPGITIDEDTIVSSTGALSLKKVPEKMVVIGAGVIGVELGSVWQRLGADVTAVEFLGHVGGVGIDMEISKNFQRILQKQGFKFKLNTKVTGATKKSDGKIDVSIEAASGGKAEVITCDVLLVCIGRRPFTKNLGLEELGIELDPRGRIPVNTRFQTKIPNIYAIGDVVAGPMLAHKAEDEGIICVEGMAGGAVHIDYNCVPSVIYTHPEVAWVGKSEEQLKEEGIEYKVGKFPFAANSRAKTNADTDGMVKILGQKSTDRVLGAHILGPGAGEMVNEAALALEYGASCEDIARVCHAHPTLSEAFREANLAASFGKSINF
The assay can be described thus: kGDH activity in extracts from cells incubated with N3PT. The settings on record: extracts from cells incubated with increasing concentrations of N3PT; read-out: IC50 kGDH (selectivity comparison, FIG. 9). Type of assay: cell-based. As for the experimental part: TK, kGDH and PDH enzymes all utilize thiamine pyrophosphate (TPP) as a co-factor for their catalysis. Conventional cell culture media (e.g., DMEM, RPMI) have high levels of thiamine (12 μM and 3 μM, respectively). High thiamine levels will mask the inhibitory effect of N3PT. Thus, to measure the IC50 of N3PT, a thiamine depleted DMEM, containing all the ingredients of normal DMEM except for thiamine (HyClone, custom order), was used. Thiamine-depleted media (TDM) is made up with thiamine-depleted DMEM, 10% FBS, which contains low amounts of thiamine (estimated to be ˜3-5 nM) and 1% Penicillin-streptomycin.
Log-phase growing cells were trypsinized and resuspended in TDM. Twenty-four hours after seeding, 5 μl of 20× N3PT compound stock solution was added to the cells in 95 μl of TDM. After increasing times of N3PT treatment, cells were either subjected to enzymatic reactions directly or were frozen at −20° C. for future assays. […] TK activities could be measured from ≧5000 cells in most cell lines tested. […]
Enzymatic inhibition was expressed as percent of control cells that were not treated with compounds. […]

Another assay concerns LAMA84. Kind of assay: inhibition of proliferation of LAMA84 cells. Type of assay: cell-based. The settings on record: LAMA84 chronic myeloid leukemia cell line. As for the experimental part:
The ability of N3PT to inhibit proliferation of these cell lines was then tested. LAMA84 was the most sensitive to N3PT, displaying an IC50 of 0.3 μM. The other cell lines, HCT116 and K562, were less sensitive, displaying an IC50 of approximately 2 μM in both cases. LAMA84 also had the highest TK activity (per cell) among these three cancer lines.

As for `Cc1ccc(C[n+]2csc(CCO)c2C)c(N)n1` [N3PT, 3-[(2-amino-6-methyl-3-pyridinyl)methyl]-5-(2-hydroxyethyl)-4-methyl thiazolium], the figures for the IC50 (in assay [1]; in the assay with LAMA84) were 86 nM and 300 nM, respectively.
